Values joined by “and” are separate entries in the source; they are usually repeats but may differ in a detail not shown here. Equal entries are not always repeated.
How the values were obtained:
[1] = tested on: mouse MCH-1R-EGFP; experiment: SPA-based Binding Assay, CHO cell membranes, [125I]Phe13Tyr19-MCH; conditions: displacement of [125I]Phe13Tyr19-MCH, stable CHO cell membranes
Excerpt: (§1) Wild-type CHO cells were transfected using SuperFect (Qiag.en) and either mouse MCH-1R-EGFP or human short/mouse species chimeric MCH-1R-EGFP. Forty-eight hours after transfection, transfected cells were subjected to positive selection for approximately ten days in media containing G418. Following selection, MCH-1R-EGFP expressing CHO cells were bulk sorted by Fluorescence Assisted Cell Sorting (FACS) for one or two rounds on the basis of fluorescence intensity to increase the population of cells expressing EGFP. Following bulk sorts, individual clones of varying fluorescence intensities were isolated by FACS and expanded.
Fluorometric Microvolume Assay Technology (FMAT) was initially employed to screen a large number of stable clones by whole cell binding with a fluorescently labeled MCH derivative (SymJz-MCH, PE Biosystems) to identify those clones with good specific binding windows.

[2] = tested on: mMCH-1R-EGFP; experiment: cAMP flashplate assay of stable CHO cell clones; type: cell-based, mouse; conditions: human MCH, 15 minutes at 37° C., 10 μM forskolin; individual stable CHO clones; FIG. 2
Excerpt: FIG. 2 illustrates a cAMP flashplate assay of CHO cell clones stably expressing mMCH-1R-EGFP. […] Cells were then lysed and assayed for bound [^125I]cAMP.
as §1
The functional activity of these clones was evaluated with the cAMP Flashplate Assay (FIGS. 2 and 3).

[3] = target: T1, HuLong/mMCH1R-1-EGFP (human long form/mouse species chimeric MCH1R-1-EGFP) (Homo sapiens, UniProt Q99705, A336T/R230K/V159M); experiment: cAMP production (FlashPlate), transiently transfected CHO cells stimulated with human MCH; type: cell-based; conditions: HuLong/mMCH1R-1-EGFP vs wild-type human MCH1R long form; transient CHO
T1 construct: ID; NO; 14 (human long form/mouse species chimeric MCH1R-linker-EGFP); 12 amino acid linker […]; expressed in transfected cells; host or cells: CHO (transient) and HEK293 Aequorin (transient)
Procedure: Both HEK293 Aequorin (National Institutes of Health) and CHO mammalian cell lines were transiently transfected with the various MCH1R/GFP variant fusion constructs, as well as the appropriate control constructs. Transfection was performed using Lipofectamine 2000 (Gibco BRL) per the manufacturer recommended protocol. […] Aequorin bioluminescence is a representative measure of intracellular Ca^2+ mobilization. cAMP production was measured with the Adenylyl Cyclase Activation FlashPlate Assay (NEN Life Science Products, Inc.).

Substance: human MCH
- IC50 with MCH compared with wild-type human short isoform [1]: indistinguishable
- EC50 [2]: 0.111 nM and 0.126 nM and 0.129 nM and 0.23 nM
- EC50 fold higher than that of corresponding wild-type control [3]: approximately 7.5 fold

Source: US7029878B2, “Melanin concentrating hormone receptor chimeric and fusion proteins” (Merck & Co., Inc., priority 2000, dated 2006)
